The results in this text go back to patent US6706715B2, “Urea derivatives with antiproteolytic activity” (Aventis Pharma Deutschland GmbH, priority 2001, dated 2004).

Each structure is given as a SMILES string.

The target of this experiment is T1, factor VIIa/tissue factor (Homo sapiens, UniProt P08709).
T1 construct: human factor VIIa and TF
T1 sequence (P08709 213-466 limits assumed): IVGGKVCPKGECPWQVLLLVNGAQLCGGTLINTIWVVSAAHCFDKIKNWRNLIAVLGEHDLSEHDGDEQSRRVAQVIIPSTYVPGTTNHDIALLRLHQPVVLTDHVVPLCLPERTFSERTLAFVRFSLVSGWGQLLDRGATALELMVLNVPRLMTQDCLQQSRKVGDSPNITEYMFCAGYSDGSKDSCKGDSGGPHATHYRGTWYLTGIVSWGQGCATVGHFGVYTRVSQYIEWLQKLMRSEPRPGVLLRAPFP
T1 sequence (P08709 61-212 limits assumed): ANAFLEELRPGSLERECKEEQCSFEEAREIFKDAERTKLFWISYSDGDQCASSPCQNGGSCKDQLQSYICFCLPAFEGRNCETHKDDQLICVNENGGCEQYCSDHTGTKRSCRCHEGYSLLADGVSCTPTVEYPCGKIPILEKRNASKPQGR
T1 sequence (P13726 33-295 partner): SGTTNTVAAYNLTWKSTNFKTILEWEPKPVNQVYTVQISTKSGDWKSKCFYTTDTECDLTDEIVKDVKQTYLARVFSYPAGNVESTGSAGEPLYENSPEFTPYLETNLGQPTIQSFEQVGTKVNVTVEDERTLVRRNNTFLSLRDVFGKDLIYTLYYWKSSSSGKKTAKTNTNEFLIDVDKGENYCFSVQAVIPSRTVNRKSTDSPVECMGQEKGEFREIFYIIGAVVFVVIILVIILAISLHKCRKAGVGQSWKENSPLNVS
The experiment in a line: Factor VIIa (FVIIa) chromogenic assay. The class given is biochemical. The note with it: human factor VIIa 5 nM and TF 10 nM; chromogenic substrate S-2288 500 μM; 25° C.; 15 minute preincubation; pH 8.15. On the procedure:
The ability of the compounds of the formula I to inhibit factor VIIa or other enzymes like factor Xa, thrombin, plasmin, or trypsin can be assessed by determining the concentration of the compound of the formula I that inhibits enzyme activity by 50%, i.e. the IC50 value, which is related to the inhibition constant Ki. Purified enzymes are used in chromogenic assays. The concentration of inhibitor that causes a 50% decrease in the rate of substrate hydrolysis is determined by linear regression after plotting the relative rates of hydrolysis (compared to the uninhibited control) versus the log of the concentration of the compound of formula I. For calculating the inhibition constant Ki, the IC50 value is corrected for competition with substrate using the formula
Ki=IC50/{1+(substrate concentration/Km)}
wherein Km is the Michaelis-Menten constant (Chen and Prusoff, Biochem. Pharmacol. 22 (1973), 3099-3108; I. H. Segal, Enzyme Kinetics, 1975, John Wiley & Sons, New York, 100-125; which are incorporated herein by reference).
a) Factor VIIa (FVIIa) Assay
The inhibitory activity (expressed as inhibition constant Ki(FVIIa)) of the compounds of formula I towards factor VIIa/tissue factor activity was determined using a chromogenic assay essentially as described previously (J. A. Ostrem et al., Biochemistry 37 (1998) 1053-1059 which is incorporated herein by reference). Kinetic assays were conducted at 25° C. in half-area microtiter plates (Costar Corp., Cambridge, Mass.) using a kinetic plate reader (Molecular Devices Spectramax 250). A typical assay consisted of 25 μl human factor VIIa and TF (5 nM and 10 nM, respective final concentration) combined with 40 μl of inhibitor dilutions in 10% DMSO/TBS-PEG buffer (50 mM Tris, 15 mM NaCl, 5 mM CaCl2, 0.05% PEG 8000, pH 8.15). Following a 15 minute preincubation period, the assay was initiated by the addition of 35 μl of the chromogenic substrate S-2288 (D-Ile-Pro-Arg-p-nitroanilide, Pharmacia Hepar Inc., 500 μM final concentration).
In general, Ki refers to a measure of affinity in units of concentration, obtained from inhibition or displacement. A higher Ki goes with weaker binding. `CC(Nc1ccccc1NC(=O)Nc1ccc(C(=N)N)cc1)c1ccc(C(=O)Nc2csc(-c3ccccc3)c2)cc1` (stereo not drawn) [Example 30] came in with a Ki of 282 nM. In turn, `CC(Nc1ccccc1NC(=O)Nc1ccc(C(=N)N)cc1)c1ccc(C(=O)NC2CCCCC2)cc1` (stereo not drawn) [Example 37] displayed a Ki of 56 nM. `CC(Nc1ccccc1NC(=O)Nc1ccc(C(=N)N)cc1)c1ccc(C(=O)NCc2ccc(S(C)(=O)=O)cc2)cc1` (stereo not drawn) [Example 24] gave a Ki of 98 nM. The result for `C[C@@H](Nc1ccccc1NC(=O)Nc1ccc(C(=N)N)cc1)c1ccccc1` [Example 15] reads 103 nM; that for `CC(Nc1ccccc1NC(=O)Nc1ccc(C(=N)N)cc1)c1ccc(C(=O)Nc2cccc(S(C)(=O)=O)c2)cc1` (stereo not drawn) [Example 19], 51 nM; that for `CC(Nc1ccccc1NC(=O)Nc1ccc(C(=N)N)cc1)c1ccc(C(=O)Nc2ccc(C(F)(F)F)cc2)cc1` (stereo not drawn) [Example 39], 935 nM. `CC(Nc1ccccc1NC(=O)Nc1ccc(C(=N)N)cc1)c1ccc(C(=O)N2CCOCC2)cc1` (stereo not drawn) [Example 5, 4-[3-(2-{1-[4-(morpholine-4-carbonyl)-phenyl]-ethylamino}-phenyl)-ureido]-benzamidine acetate] yielded an inhibitory constant (Ki) of 188 nM. Compound `CC(Nc1ccccc1NC(=O)Nc1ccc(C(=N)N)cc1)c1ccccc1` (stereo not drawn) [Example 2, 4-{3-[2-(1-Phenyl-ethylamino)-phenyl]-ureido}-benzamidin] had a Ki of 700 nM. The result for `CC(Nc1ccccc1CNC(=O)Nc1ccc(C(=N)N)cc1)c1cccc(C(F)(F)F)c1` (stereo not drawn) [Example 18] reads 44400 nM.
